± gives the uncertainty stated by the source.
Assay: xn = mol fraction of the nth substance listed

NC1CCCCC1 + Cc1ccccc1
303.15 K, 101 kPa
Details | viscosity [mPa·s]
x2 = 0.1242 | 1.381 ± 0.012
x2 = 0.2292 | 1.177 ± 0.0099
x2 = 0.3268 | 1.013 ± 0.0085
x2 = 0.4121 | 0.8791 ± 0.0075
x2 = 0.5347 | 0.7115 ± 0.0061
x2 = 0.6445 | 0.6079 ± 0.0053
x2 = 0.7365 | 0.5443 ± 0.0047
x2 = 0.8431 | 0.4838 ± 0.0043
x2 = 0.922 | 0.4617 ± 0.0041

ClC=C(Cl)Cl + ClC(Cl)(Cl)Cl
303.15 K, 101.33 kPa
Details | viscosity [mPa·s]
x1 = 0.2969 | 0.699 ± 0.1
x1 = 0.7481 | 0.555 ± 0.1
x1 = 0.7605 | 0.551 ± 0.1
x1 = 0.8498 | 0.539 ± 0.1
x1 = 0.9286 | 0.526 ± 0.1

ClC=C(Cl)Cl + ClC(Cl)Cl
303.15 K, 101.33 kPa
Details | viscosity [mPa·s]
x1 = 0.1451 | 0.517 ± 0.1
x1 = 0.2431 | 0.521 ± 0.1
x1 = 0.3368 | 0.521 ± 0.1
x1 = 0.4687 | 0.521 ± 0.1
x1 = 0.5793 | 0.519 ± 0.1
x1 = 0.6718 | 0.519 ± 0.1
x1 = 0.7912 | 0.519 ± 0.1
x1 = 0.868 | 0.518 ± 0.1
x1 = 0.9526 | 0.518 ± 0.1

O=C1CCCC1 + Clc1ccccc1
298.15 K, 101 kPa
Details | viscosity [mPa·s]
x2 = 0.0165 | 1.122 ± 0.0079
x2 = 0.0498 | 1.117 ± 0.0079
x2 = 0.1006 | 1.108 ± 0.0079
x2 = 0.1542 | 1.097 ± 0.0078
x2 = 0.2087 | 1.084 ± 0.0077
x2 = 0.266 | 1.068 ± 0.0077
x2 = 0.3245 | 1.05 ± 0.0076
x2 = 0.3841 | 1.023 ± 0.0075
x2 = 0.4488 | 0.993 ± 0.0073
x2 = 0.5148 | 0.959 ± 0.0072
x2 = 0.5836 | 0.92 ± 0.007
x2 = 0.6542 | 0.882 ± 0.0068
x2 = 0.739 | 0.835 ± 0.0066
x2 = 0.8057 | 0.802 ± 0.0065
x2 = 0.8869 | 0.769 ± 0.0063
x2 = 0.9704 | 0.745 ± 0.0062

C1COCCN1 + NCCO
viscosity [mPa·s], 101 kPa
Details | 293.15 K | 303.15 K | 313.15 K | 323.15 K
x1 = 0.06557 | 20.7 ± 0.19 | – | – | –
x1 = 0.06901 | – | – | 8.726 ± 0.11 | –
x1 = 0.07 | 21.21 ± 0.21 | 13.58 ± 0.16 | 8.71 ± 0.1 | 6.21 ± 0.07
x1 = 0.2 | 14.61 ± 0.15 | 9.65 ± 0.11 | 6.44 ± 0.07 | 4.68 ± 0.05
x1 = 0.2273 | – | – | 6.709 ± 0.077 | –
x1 = 0.2293 | 14.65 ± 0.14 | – | – | –
x1 = 0.4 | 9.19 ± 0.1 | 6.31 ± 0.07 | 4.57 ± 0.05 | 3.36 ± 0.04
x1 = 0.4108 | – | – | 4.506 ± 0.05 | –
x1 = 0.4137 | 9.258 ± 0.092 | – | – | –
x1 = 0.6 | 5.53 ± 0.06 | 3.97 ± 0.04 | 2.94 ± 0.03 | 2.24 ± 0.02
x1 = 0.616 | 5.651 ± 0.056 | – | – | –
x1 = 0.6175 | – | – | 3.337 ± 0.034 | –
x1 = 0.8608 | 3.673 ± 0.034 | – | – | –
x1 = 0.8622 | – | – | 2.454 ± 0.024 | –
x1 = 0.9 | 3.22 ± 0.03 | 2.54 ± 0.03 | 1.98 ± 0.02 | 1.61 ± 0.02

O=C1CCCC1 + Nc1cccc(Cl)c1
viscosity [mPa·s], 100 kPa
Details | x2 = 0.0805 | x2 = 0.1814 | x2 = 0.2804 | x2 = 0.3815 | x2 = 0.4998 | x2 = 0.5995 | x2 = 0.6995 | x2 = 0.7875 | x2 = 0.9071
303.15 K | 1.111 ± 0.1 | 1.291 ± 0.1 | 1.493 ± 0.1 | 1.731 ± 0.1 | 2.058 ± 0.1 | 2.379 ± 0.1 | 2.752 ± 0.1 | 3.127 ± 0.1 | 3.719 ± 0.1
308.15 K | 1.047 ± 0.1 | 1.211 ± 0.1 | 1.395 ± 0.1 | 1.611 ± 0.1 | 1.903 ± 0.1 | 2.19 ± 0.1 | 2.521 ± 0.1 | 2.852 ± 0.1 | 3.373 ± 0.1
313.15 K | 0.9683 ± 0.1 | 1.117 ± 0.1 | 1.282 ± 0.1 | 1.474 ± 0.1 | 1.734 ± 0.1 | 1.987 ± 0.1 | 2.278 ± 0.1 | 2.568 ± 0.1 | 3.023 ± 0.1
318.15 K | 0.9063 ± 0.1 | 1.039 ± 0.1 | 1.185 ± 0.1 | 1.354 ± 0.1 | 1.58 ± 0.1 | 1.799 ± 0.1 | 2.049 ± 0.1 | 2.296 ± 0.1 | 2.681 ± 0.1

N=C(N)NCCC[C@H](N)C(=O)O + O
viscosity [mPa·s]
Details | 100 kPa | 101 kPa
293.15 K, x1 = 0.00045 | 1.015 ± 0.013 | –
293.15 K, x1 = 0.00135 | 1.038 ± 0.013 | –
293.15 K, x1 = 0.002247 | 1.06 ± 0.013 | –
293.15 K, x1 = 0.002695 | 1.071 ± 0.013 | –
293.15 K, x1 = 0.00359 | 1.094 ± 0.013 | –
293.15 K, x1 = 0.008927 | – | 1.295 ± 0.027
293.15 K, x1 = 0.01246 | – | 1.431 ± 0.03
298.15 K, x1 = 0.00135 | 0.9205 ± 0.011 | –
303.15 K, x1 = 0.00045 | 0.8065 ± 0.01 | –
303.15 K, x1 = 0.00135 | 0.8226 ± 0.01 | –
303.15 K, x1 = 0.001798 | 0.8306 ± 0.01 | –
303.15 K, x1 = 0.002247 | 0.8385 ± 0.01 | –
303.15 K, x1 = 0.003143 | 0.854 ± 0.011 | –
303.15 K, x1 = 0.00359 | 0.8618 ± 0.011 | 0.8782 ± 0.018
308.15 K, x1 = 0.003143 | 0.7665 ± 0.0095 | –
313.15 K, x1 = 0.003143 | 0.6924 ± 0.0086 | –
313.15 K, x1 = 0.005375 | – | 0.7504 ± 0.016
313.15 K, x1 = 0.01246 | – | 0.9039 ± 0.019
318.15 K, x1 = 0.002695 | 0.6262 ± 0.0078 | –
323.15 K, x1 = 0.0018 | – | 0.5712 ± 0.012
323.15 K, x1 = 0.00359 | – | 0.597 ± 0.013
323.15 K, x1 = 0.005375 | – | 0.6242 ± 0.013
323.15 K, x1 = 0.008927 | – | 0.6832 ± 0.014
323.15 K, x1 = 0.01246 | – | 0.7455 ± 0.016

O=C[O-].OCC[NH2+]CCO + O
100 kPa
Details | viscosity [mPa·s]
293.15 K, x2 = 0.8484 | 8.19 ± 1.7
303.15 K, x2 = 0.4068 | 75.66 ± 15
303.15 K, x2 = 0.4845 | 65.08 ± 13
303.15 K, x2 = 0.7816 | 11.05 ± 2.2
303.15 K, x2 = 0.8484 | 5.927 ± 1.2
313.15 K, x2 = 0.2013 | 99.28 ± 20
313.15 K, x2 = 0.2622 | 77.5 ± 16
313.15 K, x2 = 0.7816 | 7.98 ± 1.6
323.15 K, x2 = 0.2013 | 61.45 ± 12
323.15 K, x2 = 0.7816 | 6.008 ± 1.2
323.15 K, x2 = 0.9708 | 0.9306 ± 0.19
